Source: US8586708B2, “Monovalent streptavidin compositions” (Massachusetts Institute of Technology, priority 2005, dated 2013)
Like-named read-outs stand apart in the source and are kept apart here.

Assays:
[1] = test system: AP-neuroligin-1 on hippocampal neurons; test: Clustering of biotinylated AP-neuroligin-1 on hippocampal neurons; type: cell-based, rat; details: for AP-neuroligin-1 clusters/μm: two hour incubation at 37° C., ± s.e.m., n=9; for AP-neuroligin-1 staining pattern: zero hours
Protocol: HeLa cells were grown in Dulbecco's Modified Eagle Medium (DMEM) with 10% Fetal Calf Serum, 50 U/mL penicillin and 50 μg/mL streptomycin. HeLa stably expressing AP-CFP-TM or Ala-CFP-TM have been previously described (Howarth, M. et al. Proc. Natl. Acad. Sci. USA 102: 7583-7588, 2005). Dissociated primary neuronal cultures were prepared from Embryonic Day 18 or 19 (E18/19) rats and transfected with Lipofectamine 2000 at DIV6 as in Levinson et al. (Levinson, J. N. et al. J. Biol. Chem. 280: 17312-17319, 2005).
(§1) Enzymatic biotinylation and imaging of HeLa transfectants were performed as previously described (Howarth, M. et al. Proc. Natl. Acad. Sci. USA 102: 7583-7588, 2005), except instead of 10 μM biotin and 1 mM ATP, we added 10 μM biotin-AMP (synthesized according to Coleman and Huang; Coleman, T. M. and Huang, F. Chem. Biol. 9: 1227-1236, 2002) to give equivalent biotinylation but minimizing the risk of purinoreceptor activation by ATP (Rathbone, M. P. et al., Prog. Neurobiol. 59: 663-690, 1999). […] Biotinylation of neurons was performed at day in vitro (DIV) 8 in Hanks' Balanced Salt Solution (HBSS) (Invitrogen) with 0.2 μM biotin ligase and 10 μM biotin-AMP for 5 min at 37° C. […] Neurons were washed with NeuroBasal media (Invitrogen) supplemented with B-27 (Invitrogen), 50 U/mL penicillin, 50 μg/mL streptomycin, and 0.2 mM L-glutamine and chased in the same medium for 0 or 2 hr at 37° C. Cells were then fixed in −20° C. methanol. There was no signal from wild-type streptavidin labeling if neurons were instead transfected with Ala-neuroligin-1 containing a point mutation in AP, confirming the specificity of labeling (Howarth, M. et al. Proc. Natl. Acad. Sci. USA 102: 7583-7588, 2005). To observe synapse formation, cells were biotinylated and stained with streptavidin as above, biotinylation and streptavidin staining was repeated at 6 hr, and then after 24 hr total chase cells were fixed in methanol. […]
Images of HeLa cells were collected on a Zeiss Axiovert 200M inverted epifluorescence microscope using a 40× oil-immersion lens and a MicroMAX CCD camera (Roper Scientific; Tucson, Ariz.). CFP (420DF20 excitation, 450DRLP dichroic, 475DF40 emission) and Alexa568 (560DF20 excitation, 585DRLP dichroic, 605DF30 emission) images were collected and analyzed using OpenLab software (Improvision; Lexington, Mass.). Fluorescence images were background-corrected. […] Images were scaled to 16 bits and analyzed in Northern Eclipse (Empix Imaging; Ontario, Canada) with user-written software. […] Results were then calculated in terms of clusters per micrometer of dendrite. For assessment of pre-synaptic terminals, clusters were determined as before and average grey levels of clusters were compared between transfected dendrites and untransfected dendrites within the same field of view. […]

[2] = Stability of monovalent streptavidin to subunit exchange (SDS-PAGE); type: physicochemical; details: for A1D3 rearranged into D4: PBS
Protocol: Methods described in the Methods section above herein were used for the following production and testing of monovalent streptavidin. Tests were performed to determine whether monovalent streptavidin would rearrange its subunit composition over time.

[3] = Off-rate of 3H-biotin with cold biotin chase and precipitation; type: binding; details: 10 nM 3H-biotin, 1 μM streptavidin, 50 μM cold biotin, 37° C.; ± s.e.m.
Protocol: (Green, N. M. Methods in Enzymol. 184: 51-67, 1990). Dissociation was then initiated by addition of cold biotin at a final concentration of 50 μM and time-points taken over 5 hours at 37° C. 50 μL aliquots were removed and added to 200 μL 0.2M ZnSO4 chilled on ice, followed by 200 μL 0.2 M NaOH. The protein precipitate was pelleted by centrifugation at 16,500 g for 5 min, and ^3H-biotin in the supernatant was measured by liquid scintillation counting. Data were plotted as ln(fraction bound) versus time, and fit to a straight line by linear regression. Dissociation rates were deduced from the slope of the line and the equation: ln(fraction bound)=−koff(t) where fraction bound=(total ^3H-biotin−free ^3H-biotin at timepoint)/(total ^3H-biotin−free ^3H-biotin before cold biotin chase).

[4] = Thermostability assay of tetramer (heat, SDS-PAGE); type: physicochemical; details: 3 min, PBS
Protocol: 2.3 μM wild-type streptavidin or chimeric streptavidin in PBS was heated at the indicated temperature for 3 min in a PTC-200 PCR machine (MJ Research; Waltham, Mass.) and then immediately placed on ice (Bayer, E. A. et al. Electrophoresis 17: 1319-1324, 1996). Samples were mixed with 6× SDS-PAGE loading buffer and loaded onto a 16% polyacrylamide gel.

[5] = test system: biotinylated AP-CFP-TM on HeLa cells; test: Staining of biotinylated AP-CFP-TM on HeLa cells with Alexa Fluor 568 conjugates; type: cell-based; details: 10 μg/mL Alexa Fluor 568 conjugate, 10 min at 4° C.
Protocol: as §1, with “methanol.” for “methanol. There was no signal from wild-type streptavidin labeling if neurons were instead transfected with Ala-neuroligin-1 containing a point mutation in AP, confirming the specificity of labeling (Howarth, M. et al. Proc. Natl. Acad. Sci. USA 102: 7583-7588, 2005). To observe synapse formation, cells were biotinylated and stained with streptavidin as above, biotinylation and streptavidin staining was repeated at 6 hr, and then after 24 hr total chase cells were fixed in methanol.”
Images of HeLa cells were collected on a Zeiss Axiovert 200M inverted epifluorescence microscope using a 40× oil-immersion lens and a MicroMAX CCD camera (Roper Scientific; Tucson, Ariz.). CFP (420DF20 excitation, 450DRLP dichroic, 475DF40 emission) and Alexa568 (560DF20 excitation, 585DRLP dichroic, 605DF30 emission) images were collected and analyzed using OpenLab software (Improvision; Lexington, Mass.). Fluorescence images were background-corrected. […] Images were scaled to 16 bits and analyzed in Northern Eclipse (Empix Imaging; Ontario, Canada) with user-written software. […] Results were then calculated in terms of clusters per micrometer of dendrite. For assessment of pre-synaptic terminals, clusters were determined as before and average grey levels of clusters were compared between transfected dendrites and untransfected dendrites within the same field of view. […] “n” represents the number of transfected neurons for which clusters were measured. […]

[6] = Kd of D4 by 3H-biotin binding and protein precipitation
Protocol: After incubation at room temperature for 20 hr, the protein was precipitated by adding 50 μL to 200 μL 0.2 M ZnSO4 followed by 200 μL 0.2 M NaOH. The protein precipitate was pelleted by centrifugation at 16,500 g for 5 min. The biotin bound by D4 was calculated from the total ^3H -biotin added minus the ^3H -biotin in the supernatant. The Kd was obtained using a nonlinear regression analysis (one-site binding hyperbola) with SigmaPlot (Systat Software; Point Richmond, Calif.).

biotinylated cells = test: Binding to biotinylated cells; type: cell-based
[7] = literature value; read-out: Kd for biotin; cited from earlier work

Substance	AP-neuroligin-1 clusters/μm [1] [clusters/μm]	AP-neuroligin-1 staining pattern [1]	off-rate from biotin [3]	Alexa staining of biotinylated AP-CFP-TM [5]	further results
A1D3: chimeric streptavidin tetramer with one Alive (wild-type, His6-tagged) subunit and three Dead (N23A, S27D, S45A) subunits [Tetramer A1D3]	0.087±0.021	diffuse surface staining	6.14±0.19×10^−5 s^−1	detected equally well	A1D3 rearranged into D4 ([2]; 37° C. incubation for one day): 2%; Formation of A2D2 from subunit exchange ([2]; 37° C. one day or room temperature one week): not detected; A1D3 rearranged into D4 ([2]; room temperature incubation for one week): 3%; tetramer stability to heat denaturation ([4]; 100° C.): A significant fraction of A1D3 remained tetrameric; thermostability compared with wild-type streptavidin ([4]; various temperatures): little difference
D4: streptavidin with 4 dead subunits (N23A, S27D, S45A; SEQ ID NO:3) [Tetramer D4]				no detectable staining	biotin binding (in words) [6]: negligible biotin binding; Kd ([6]; 24 μM D4, 0-500 μM 3H-biotin, room temperature 20 hr, ± s.e.m.): 918 ± 0.0117 µM
N23A, S27D: double mutant streptavidin tetramer with one of the weakest reported affinities for biotin					binding to biotinylated cells (biotinylated cells): still bound; Kd [7]: 71 µM
wild-type streptavidin: wild-type core streptavidin tetramer with 4 biotin binding sites (SEQ ID NO:2) [reference compound]	0.266±0.011	diffuse surface staining	5.17±0.25×10^−5 s^−1	detected equally well	
